Results from patent US20110183978A1, “Phenylpyri(mi)dinylazoles” (Bayer CropScience AG, priority 2009, published 2011).

assay: physchem; details: LogPA

Row | SMILES | chromatographic logP
1 | CC(C)Cn1cc(-c2ccnc(N(C(=O)C(C)(C)C(=O)C(C)C)C(C)C)n2)c(-c2ccc(F)cc2)n1 [Compound 186] | 3.02
2 | CCn1cc(-c2ccnc(NC(=O)CCCCC(=O)OC)c2)c(-c2ccc(F)cc2)n1 [Compound 330] | 2.16
3 | Fc1ccc(-c2nn(C3CCCCC3)cc2-c2ccncc2)cc1 [Compound 168] | 1.91
4 | CC(C)C(=O)Nc1cc(-c2cn(OC3CCCC3)nc2-c2ccc(F)cc2)ccn1 [Compound 270] | 3.65
5 | N#Cc1[nH]nc(-c2ccc(F)cc2)c1-c1ccncc1 [Compound 175] | 1.08
6 | CC(C)n1cc(-c2ccnc(NC(=O)C3CC3)n2)c(-c2ccc(F)cc2)n1 [Compound 356] | 2.49
7 | CCn1cc(-c2ccnc(NC(=O)c3cn(C)nc3C(F)F)c2)c(-c2ccc(F)cc2)n1 [Compound 333] | 2.47
8 | CCn1cc(-c2ccnc(NC(=O)Cc3ccccc3)c2)c(-c2ccc(F)cc2)n1 [Compound 190] | 2.72
9 | Cc1csc2c(-c3cn(CC(C)C)nc3-c3ccc(F)cc3)ncnc12 [Compound 288] | 3.85
10 | Cn1cc(-c2ccnc(NC(=O)c3ccc(F)cc3)c2)c(-c2ccc(F)cc2)n1 [Compound 344] | 2.61
11 | CC(C)Cn1cc(-c2ccnc(N3CCCC3=O)c2)c(-c2ccc(F)cc2)n1 [Compound 187] | 3.19
12 | CC(C)Nc1nccc(-c2cn(CCCl)nc2-c2ccc(F)cc2)n1 [Compound 359] | 2.05
13 | Cn1cc(-c2ccnc(NC(=O)CCc3ccccc3)c2)c(-c2ccc(F)cc2)n1 [Compound 343] | 2.54
14 | CCOC(=O)Nc1cc(-c2cn(Cc3ccccc3F)nc2-c2ccc(F)cc2)ccn1 [Compound 266] | 3.24

same assay, conditions: LogPA (logP of the stated pure compound or, in a mixture, of the main isomer, 1-substituted 3-aryl-1H-pyrazole)

Row | SMILES | chromatographic logP
15 | COc1ccc(-c2nn(C3CCCCO3)cc2-c2ccnc3[nH]ccc23)cc1 (stereo not drawn) [Compound 80] | 1.87
16 | c1ccc(Oc2cccc(-c3c(-c4ccncc4)cnn3C3CCCCO3)c2)cc1 (stereo not drawn) [Compound 67, 4-[5-(3-phenoxyphenyl)-1-(tetrahydro-2H-pyran-2-yl)-1H-pyrazol-4-yl]pyridine] | 1.88
17 | CC(C)=CCn1cc(-c2ccncn2)c(-c2cccc(Cl)c2)n1 [Compound 34] | 3.5
18 | C=CCNc1nccc(-c2cnn(CC(C)C)c2-c2ccc(F)cc2)n1 [Compound 149] | 2.37
19 | OCC(O)Cn1cc(-c2ccncc2)c(-c2ccc(F)cc2)n1 (stereo not drawn) [Compound 124] | 0.17
20 | CC(C)n1ncc(-c2ccnc(N)c2)c1-c1ccc(F)cc1 [Compound 97] | 1.25
21 | CC(C)(C)C(=O)Nc1cc(-c2cn(C3CCCCO3)nc2-c2cccc(C(F)(F)F)c2)ccn1 (stereo not drawn) [Compound 48] | 4.1
22 | Fc1ccc(Cn2cc(-c3ccncc3)c(-c3ccc(F)cc3)n2)cc1 [Compound 130] | 1.69
23 | CC(C)Cn1cc(-c2ccnc3c2CC(=O)N3)c(-c2ccc(F)cc2)n1 [Compound 147] | 2.6
24 | COc1ccc(-c2nn(C3CCCCO3)cc2-c2ccnc(C)c2)cc1 (stereo not drawn) [Compound 73] | 1.33
25 | CC(=O)OCCn1cc(-c2ccncc2)c(-c2ccc(F)cc2)n1 [Compound 145] | 1.05
26 | Fc1ccc(-c2nn(-c3cc(C(F)(F)F)ncn3)cc2-c2ccncc2)cc1 [Compound 112] | 2.73
27 | CC(C)(C)c1ccc(-c2c(-c3ccncc3)cnn2C2CCCCO2)cc1 (stereo not drawn) [Compound 57, 4-[5-(4-tert-butylphenyl)-1-(tetrahydro-2H-pyran-2-yl)-1H-pyrazol-4-yl]pyridine] | 2.02
28 | COc1ccc(-c2nn(C3CCCCO3)cc2-c2ccnc(N)c2)cc1 (stereo not drawn) [Compound 69] | 1.31
29 | Fc1ccc(-c2nn(Cc3cccc(-c4ccccc4)c3)cc2-c2ccncc2)cc1 [Compound 125] | 2.38
30 | CNC(=O)c1cc(-c2cn(C3CCCCO3)nc2-c2ccc(F)cc2)ccn1 (stereo not drawn) [Compound 90] | 2.72
31 | Fc1ccc(-c2nn(Cc3ccccn3)cc2-c2ccncc2)cc1 [Compound 115] | 0.99
32 | CNC(=O)c1cc(-c2cn(C3CCCCO3)nc2-c2cccc(Cl)c2)ccn1 (stereo not drawn) [Compound 83] | 3.15
33 | Fc1ccc(-c2nn(CCc3ccccc3Cl)cc2-c2ccncc2)cc1 [Compound 119] | 2.04
34 | COc1ccc(-c2nn(C3CCCCO3)cc2-c2ccnc(C)n2)cc1 (stereo not drawn) [Compound 77] | 2.27
35 | Clc1cccc(-c2c(-c3ccncc3)cnn2C2CCCCO2)c1Cl (stereo not drawn) [Compound 76, 4-[5-(2,3-dichlorophenyl)-1-(tetrahydro-2H-pyran-2-yl)-1H-pyrazol-4-yl]pyridine] | 1.66
36 | Fc1ccc(-c2nn(-c3ccc(C(F)(F)F)cn3)cc2-c2ccncc2)cc1 [Compound 79] | 2.64
37 | Fc1ccc(-c2nn(Cc3ncc[nH]3)cc2-c2ccncc2)cc1 [Compound 143] | 0.41
38 | COc1ccc(-c2nn(C3CCCCO3)cc2-c2ccncc2)cc1 (stereo not drawn) [Compound 43] | 1.24

same assay, conditions: pH 2.3, LogP (pH 2.3)

Row | SMILES | chromatographic logP
39 | N#Cc1cc(-c2c(-c3ccncc3)cnn2C2CCCCO2)ccc1F (stereo not drawn) [[X-12], 2-fluoro-5-[4-(pyridin-4-yl)-1-(tetrahydro-2H-pyran-2-yl)-1H-pyrazol-5-yl]benzonitrile] | 1.45
40 | Cn1cc(-c2ccnc(N)c2)c(-c2ccc(F)cc2)n1 [[III-5], 4-[3-(4-Fluorophenyl)-1-methyl-1H-pyrazol-4-yl]pyridin-2-amine] | 0.71
41 | CC(c1ccccc1F)n1cc(Br)c(-c2ccc(F)cc2)n1 (stereo not drawn) [[VI-9], 4-bromo-3-(4-fluorophenyl)-1-[1-(2-fluorophenyl)ethyl]-1H-pyrazole] | 4.77
42 | FC(F)(F)Oc1ccc(-c2c(-c3ccncc3)cnn2C2CCCCO2)cc1 (stereo not drawn) [[X-19], 4-{1-(tetrahydro-2H-pyran-2-yl)-5-[4-(trifluoromethoxy)phenyl]-1H-pyrazol-4-yl}pyridine] | 1.78
43 | COc1ccc(-c2c(-c3ccncc3)cnn2C2CCCCO2)c2ccccc12 (stereo not drawn) [[X-2], 4-[5-(4-methoxy-1-naphthyl)-1-(tetrahydro-2H-pyran-2-yl)-1H-pyrazol-4-yl]pyridine] | 1.61
44 | Fc1ccc(-c2nn(C3CC3)cc2Br)cc1 [[VI-26], 4-Bromo-1-cyclopropyl-3-(4-fluorophenyl)-1H-pyrazole] | 3.59
45 | CCC(C)n1cc(Br)c(-c2ccc(F)cc2)n1 (stereo not drawn) [[VI-19], 4-Bromo-1-sec-butyl-3-(4-fluorophenyl)-1H-pyrazole] | 4.39
46 | CC(C)n1cc(-c2ccnc(N)c2)c(-c2ccc(F)cc2)n1 [[III-1], 4-[3-(4-Fluorophenyl)-1-isopropyl-1H-pyrazol-4-yl]pyridin-2-amine] | 1.22
47 | CC1(C)OB(c2cn(CC(F)F)nc2-c2ccc(F)cc2)OC1(C)C [[V-4], 1-(2,2-difluoroethyl)-3-(4-fluorophenyl)-4-(4,4,5,5-tetramethyl-1,3,2-dioxaborolan-2-yl)-1H-pyrazole] | 3.84
48 | CC(CC#N)n1cc(Br)c(-c2ccc(F)cc2)n1 (stereo not drawn) [[VI-21], 3-[4-Bromo-3-(4-fluorophenyl)-1H-pyrazol-1-yl]butanonitrile] | 3.08
49 | Fc1ccc(-c2nn(Cc3ccccc3F)cc2Br)cc1 [[VI-13], 4-Bromo-1-(2-fluorobenzyl)-3-(4-fluorophenyl)-1H-pyrazole] | 4.39
50 | NS(=O)(=O)c1ccc(-c2c(-c3ccncc3)cnn2C2CCCCO2)cc1 (stereo not drawn) [[X-23], 4-[4-(pyridin-4-yl)-1-(tetrahydro-2H-pyran-2-yl)-1H-pyrazol-5-yl]benzenesulphonamide] | 0.92
51 | c1ccc(COc2ccccc2-c2c(-c3ccncc3)cnn2C2CCCCO2)cc1 (stereo not drawn) [[X-22], 4-{5-[2-(benzyloxy)phenyl]-1-(tetrahydro-2H-pyran-2-yl)-1H-pyrazol-4-yl}pyridine] | 1.64
52 | CC(C)On1cc(Br)c(-c2ccc(F)cc2)n1 [[VI-25], 4-Bromo-3-(4-fluorophenyl)-1-isopropoxy-1H-pyrazole] | 4.11
53 | FC1(F)Oc2cccc(-c3c(-c4ccncc4)cnn3C3CCCCO3)c2O1 (stereo not drawn) [[X-4], 4-[5-(2,2-difluoro-1,3-benzodioxol-4-yl)-1-(tetrahydro-2H-pyran-2-yl)-1H-pyrazol-4-yl]pyridine] | 1.64

same assay, conditions: pH 2.7, logP (pH 2.7)

Row | SMILES | chromatographic logP
54 | Cn1cc(-c2ccnc(N)c2)c(-c2ccc(F)cc2)n1 [[III-5], 4-[3-(4-Fluorophenyl)-1-methyl-1H-pyrazol-4-yl]pyridin-2-amine] | 0.71
55 | CC(c1ccccc1F)n1cc(Br)c(-c2ccc(F)cc2)n1 (stereo not drawn) [[VI-9], 4-bromo-3-(4-fluorophenyl)-1-[1-(2-fluorophenyl)ethyl]-1H-pyrazole] | 3.63
56 | CC1(C)OB(c2ccnc(NC(=O)CC3CC3)c2)OC1(C)C [[XV-a-5], 2-Cyclopropyl-N-[4-(4,4,5,5-tetramethyl-1,3,2-dioxaborolan-2-yl)pyridin-2-yl]acetamide] | 0.27
57 | Fc1ccc(-c2nn(C3CC3)cc2Br)cc1 [[VI-26], 4-Bromo-1-cyclopropyl-3-(4-fluorophenyl)-1H-pyrazole] | 3.59
58 | CCC(=O)Nc1nccc(-c2cn(C(C)C)nc2-c2ccc(F)cc2)n1 [[I-g-1], N-{4-[3-(4-Fluorophenyl)-1-isopropyl-1H-pyrazol-4-yl]pyrimidin-2-yl}propanamide] | 2.35
59 | CCC(C)n1cc(Br)c(-c2ccc(F)cc2)n1 (stereo not drawn) [[VI-19], 4-Bromo-1-sec-butyl-3-(4-fluorophenyl)-1H-pyrazole] | 4.39
60 | CC(C)n1cc(-c2ccnc(N)c2)c(-c2ccc(F)cc2)n1 [[III-1], 4-[3-(4-Fluorophenyl)-1-isopropyl-1H-pyrazol-4-yl]pyridin-2-amine] | 1.22
61 | CC1(C)OB(c2cn(CC(F)F)nc2-c2ccc(F)cc2)OC1(C)C [[V-4], 1-(2,2-difluoroethyl)-3-(4-fluorophenyl)-4-(4,4,5,5-tetramethyl-1,3,2-dioxaborolan-2-yl)-1H-pyrazole] | 3.84
62 | CC(CC#N)n1cc(Br)c(-c2ccc(F)cc2)n1 (stereo not drawn) [[VI-21], 3-[4-Bromo-3-(4-fluorophenyl)-1H-pyrazol-1-yl]butanonitrile] | 3.08
63 | CC(C)Cn1ncc(Br)c1-c1ccc(F)cc1 [[VI-5], 4-Bromo-5-(4-fluorophenyl)-1-isobutyl-1H-pyrazole] | 4.04
64 | CC(C)Nc1nccc(C(=CN(C)C)C(=O)c2ccc(F)cc2)n1 [[XLV-1], 3-(Dimethylamino)-1-(4-fluorophenyl)-2-[2-(isopropylamino)pyrimidin-4-yl]prop-2-en-1-one] | 1.45
65 | CCC(=O)Nc1cc(-c2cn(CCOC)nc2-c2ccc(F)cc2)ccn1 [[I-2], N-{4-[3-(4-Fluorophenyl)-1-(2-methoxyethyl)-1H-pyrazol-4-yl]pyridin-2-yl}propanamide] | 1.61
66 | Fc1ccc(-c2nn(Cc3ccccc3F)cc2Br)cc1 [[VI-13], 4-Bromo-1-(2-fluorobenzyl)-3-(4-fluorophenyl)-1H-pyrazole] | 4.39
67 | CC(C)n1cc(-c2ccnc3ccccc23)c(-c2ccc(F)cc2)n1 [[I-1], 4-[3-(4-Fluorophenyl)-1-isopropyl-1H-pyrazol-4-yl]quinoline] | 2.23
68 | CC(C)On1cc(Br)c(-c2ccc(F)cc2)n1 [[VI-25], 4-Bromo-3-(4-fluorophenyl)-1-isopropoxy-1H-pyrazole] | 4.11
69 | COc1cc(F)ccc1-c1nn(C)c(OC(F)F)c1Br [[VI-b-4], 4-Bromo-5-(difluoromethoxy)-3-(4-fluoro-2-methoxyphenyl)-1-methyl-1H-pyrazole] | 3.15
